Like-named read-outs stand apart in the source and are kept apart here. Each block holds one molecule with its values, some of them ahead of it.
Target: T1, ACE-2 (Homo sapiens, UniProt Q9BYF1)
T1 construct: a stop codon inserted after the serine immediately preceding the transmembrane domain; made in house; host or cells: CHO K1 cells (transient transfection, purified from conditioned medium)
Assay: ACE-2 Competitive Substrate Assay (ACS Assay)
Assay type: biochemical

[1] = Ki class, compounds tested in 5% DMSO, 12 compound concentrations, Ki=Kiapp/(1+[S]/Km), read-out: Human ACE-2 Activity
[2] = Ki class per key, compounds tested in 5% DMSO, 12 compound concentrations, 25° C., Ki=Kiapp/(1+[S]/Km), read-out: Human ACE-2 Activity
[3] = Table 3, very good ACE-2 inhibiting compounds, species not given, read-out: ACE-2 Activity, Ki
[4] = Ki class, compounds tested in 5% DMSO, 12 concentrations, read-out: Human ACE-2 Activity

T1 sequence (Q9BYF1 18-740 limits assumed): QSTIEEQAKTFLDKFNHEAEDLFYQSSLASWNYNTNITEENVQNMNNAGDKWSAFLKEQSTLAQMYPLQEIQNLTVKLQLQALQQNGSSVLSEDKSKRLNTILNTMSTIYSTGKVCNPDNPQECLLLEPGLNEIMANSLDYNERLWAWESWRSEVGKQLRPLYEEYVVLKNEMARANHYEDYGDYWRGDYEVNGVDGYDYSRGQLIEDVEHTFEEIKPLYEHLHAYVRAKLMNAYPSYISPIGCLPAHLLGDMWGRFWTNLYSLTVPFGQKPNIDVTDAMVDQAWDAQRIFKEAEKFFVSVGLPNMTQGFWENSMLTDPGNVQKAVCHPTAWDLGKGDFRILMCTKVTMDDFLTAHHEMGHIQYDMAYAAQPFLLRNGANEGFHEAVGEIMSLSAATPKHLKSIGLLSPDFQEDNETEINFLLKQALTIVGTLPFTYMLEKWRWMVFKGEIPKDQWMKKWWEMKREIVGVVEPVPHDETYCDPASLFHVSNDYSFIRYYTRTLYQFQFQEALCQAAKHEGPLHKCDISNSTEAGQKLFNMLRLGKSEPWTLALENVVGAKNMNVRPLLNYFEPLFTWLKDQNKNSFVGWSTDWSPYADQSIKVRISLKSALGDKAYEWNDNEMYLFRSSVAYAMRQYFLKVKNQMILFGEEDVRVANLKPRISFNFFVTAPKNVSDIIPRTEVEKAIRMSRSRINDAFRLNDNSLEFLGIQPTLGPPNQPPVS

SMILES: Cc1cc(C)cc(Cn2cncc2C[C@H](NC(CC(C)C)C(=O)O)C(=O)O)c1 (single isomer, unassigned) [HR, 2-[1-Carboxy-2-[3-(3,5-dimethyl-benzyl)-3H-imidazol-4-yl]-ethylamino)4-methyl-pentanoic acid]
Ki [1]: > 0.5 µM

SMILES: CCOc1ccc2nc(NC(=O)C[C@H](N[C@@H](CC(C)C)C(=O)O)C(=O)O)sc2c1 [MP, (S,S)-2-[1-Carboxy-2-(6-ethoxy-benzothiazol-2-ylcarbamoyl)-ethylamino]-4-methyl-pentanoic acid]
Ki [1]: 0.1 to 0.5 µM

SMILES: CC(C)C[C@H](N[C@@H](Cc1ccnn1Cc1cc(Cl)cc(Cl)c1)C(=O)O)C(=O)O [MV, 2-{1-carboxy-2-[2-(3,5-dichlorobenzyl)-2H-pyrazol-3-yl]-ethylamino}-4-methyl-pentanoic acid]
Ki [1]: < 0.1 µM
Ki [3]: < 0.05 µM

SMILES: CC(C)C[C@H](N[C@@H](CNC(=O)c1ccc(Cl)c(Cl)c1)C(=O)O)C(=O)O [LJ, (S,S)-2-[1-Carboxy-2-(3,4-dichloro-benzoylamino)-ethylamino]-4-methyl-pentanoic acid]
Ki [1]: > 0.5 µM

SMILES: O=C(O)[C@@H]1C[C@@H](C(=O)O)N1 [A, Azetidine-2,4-dicarboxylic acid]
Ki [4]: > 0.5 µM

SMILES: CC1(C)SC(C(=O)O)NC1C(=O)O (stereo not drawn) [L, 5,5-Dimethyl-thiazolidine-2,4-dicarboxylic acid]
Ki [4]: > 0.5 µM

SMILES: CC(C)C[C@H](N[C@@H](Cc1csc(-c2ccc(F)c(Cl)c2)n1)C(=O)O)C(=O)O [KJ, (S,S)-2-{1-Carboxy-2-[2-(3-chloro-4-fluoro-phenyl)-thiazol-4-yl-]-ethylamino}-4-methyl-pentanoic acid]
Ki [1]: < 0.1 µM
Ki [3]: 0.05 to 0.1 µM

SMILES: COc1cccc(Cn2cncc2C[C@H](NC(CC(C)C)C(=O)O)C(=O)O)c1OC (single isomer, unassigned) [IP, 2-[1-Carboxy-2-[3-(2,3-dimethoxy-benzyl)-3H-imidazol-4-yl]-ethylamino)4-methyl-pentanoic acid]
Ki [1]: > 0.5 µM

SMILES: CC(C)C[C@H](N[C@@H](Cc1cncn1Cc1cc(Cl)cc(Cl)c1)C(=O)OCc1ccccc1)C(=O)O (single isomer, unassigned) [LC, 2-(1-Benzyloxycarbonyl-2-[3-(3,5-dichloro-benzyl)-3H-imidazol-4-yl]-ethylamino]-4-methyl-pentanoic acid]
Ki [1]: < 0.1 µM
Ki [3]: < 0.05 µM

SMILES: CC(C)C[C@H](N[C@@H](Cn1ccn(Cc2ccc(Cl)c(Cl)c2)c1=O)C(=O)O)C(=O)O [KU, (S,S) 2-{1-Carboxy-2-[3-(3,4-dichloro-benzyl)-2-oxo-2,3-dihydro-imidazol-1-yl]ethylamino}-4-methyl-pentanoic acid]
Ki [1]: < 0.1 µM
Ki [3]: 0.05 to 0.1 µM

SMILES: CCOC(=O)C(CCc1ccccc1)N[C@@H](CC(C)C)C(=O)O (stereo partly drawn) [B, 2-(1-Ethoxycarbonyl-3-phenyl-propylamino)-4-methyl-pentanoicacid]
Ki [4]: > 0.5 µM

SMILES: CC(C)C[C@H](N[C@@H](CC(=O)Nc1nc2ccc(F)cc2s1)C(=O)O)C(=O)O [MQ, 2-[1-Carboxy-2-(6-fluoro-benzothiazol-2-ylcarbamoyl)-ethylamino]-4-methyl-pentanoic acid]
Ki [1]: < 0.1 µM
Ki [3]: < 0.05 µM

SMILES: CCOC(=O)[C@H](Cc1cncn1Cc1cc(Cl)cc(Cl)c1)N[C@@H](CC(C)C)C(=O)O [MY, (S,S) 2-{2-[3-(3,5-Dichloro-benzyl)-3H-imidazol-4-yl]-1-ethoxycarbonyl-ethylamino}-4-methyl-pentanoic acid]
Ki [1]: 0.1 to 0.5 µM

SMILES: CC(C)CC(NC(CC(=O)N1CCN(C(c2ccccc2)c2ccc(Cl)cc2)CC1)C(=O)O)C(=O)O (stereo not drawn) [KW, 2-(1-Carboxy-3-[4-[(4-chloro-phenyl)-phenyl-methyl]-piperazin-1-yl]-3-oxo-propylamino)-4-methyl-pentanoic acid]
Ki [1]: > 0.5 µM

SMILES: CC(C)C[C@H](N[C@@H](CNS(=O)(=O)c1ccc2ccccc2c1)C(=O)O)C(=O)O [MU, 2-[1-Carboxy-2-(naphthalene-2-sulfonylamino)-ethylamino]-4-methyl-pentanoic acid]
Ki [1]: > 0.5 µM

SMILES: CC(C)C[C@H](N[C@@H](Cn1ccn(Cc2cc(F)cc(F)c2)c1=O)C(=O)O)C(=O)O [LG, 2-[1-Carboxy-2-[3-(3,5-difluoro-benzyl)-2-oxo-2,3-dihydro-imidazol-1-yl]-ethylamino]-4-methyl-pentanoic acid]
Ki [1]: < 0.1 µM
Ki [3]: 0.05 to 0.1 µM

SMILES: CC(C)C[C@H](N[C@@H](Cc1cc(-c2ccc(Cl)c(Cl)c2)on1)C(=O)O)C(=O)O [QL, 2-[1-Carboxy-2-[5-(3,4-dichloro-phenyl)-isoxazol-3-yl]-ethylamino)-4-methylpentanoic acid]
Ki [2]: < 0.1 µM
Ki [3]: 0.05 to 0.1 µM

Other lines, results leading:

Ki [2]: < 0.1 µM
Ki [3]: < 0.05 µM
SMILES: CC(C)C[C@H](N[C@@H](Cc1ccc(-c2cnc3ccccc3c2)cc1)C(=O)O)C(=O)O [QC, (S,S)-2-[1-Carboxy-2-(4-quinolin-3-yl-phenyl)-ethylamino]-4-methyl-pentanoic acid]

Ki [1]: > 0.5 µM
SMILES: COc1ccc2ccccc2c1Cn1cncc1C[C@H](NC(CC(C)C)C(=O)O)C(=O)O (single isomer, unassigned) [IS, 2-[1-Carboxy-2-[3-(2-methoxy-naphthalen-1-ylmethyl)-3H-imidazol-4-yl]-ethylamino]-4-methyl-pentanoic acid]

Ki [1]: 0.1 to 0.5 µM
SMILES: Cc1ccc(Cn2cncc2C[C@H](NC(CC(C)C)C(=O)O)C(=O)O)cc1 (single isomer, unassigned) [HH, 2-[1-Carboxy-2-[3-(4-methyl-benzyl)-3H-imidazol-4-yl]-ethylamino)4-methyl-pentanoic acid]

Ki [1]: > 0.5 µM
SMILES: CC(C)CC(N[C@@H](Cc1csc(NCc2ccccc2)n1)C(=O)O)C(=O)O (single isomer, unassigned) [HM, 2-[2-(2-Benzylamino-thiazol-4-yl)-1-carboxy-ethylamino]-4-methyl-pentanoic acid]

Ki [1]: 0.1 to 0.5 µM
SMILES: CC(C)C[C@H](N[C@@H](Cc1cccc(-c2cc(Cl)cc(Cl)c2)c1)C(=O)O)C(=O)O [MI, (S,S)-2-[1-Carboxy-2-(3,′5′-dichloro-biphenyl-3-yl)-ethylamino]-4-methyl-pentanoic acid]

Ki [2]: 0.1 to 0.5 µM
SMILES: CC(C)C[C@H](N[C@@H](Cc1ccc(NC(=O)C(C)(C)C)cc1)C(=O)O)C(=O)O [QS, 2-{1-Carboxy-2-[4-(2,2-dimethyl-propionylamino)-phenyl]-ethylamino}-4-methyl-pentanoic acid]

Ki [2]: < 0.1 µM
Ki [3]: < 0.05 µM
SMILES: CC(C)C[C@H](N[C@@H](Cc1ccc(C(=O)Nc2cc(Cl)cc(Cl)c2)cc1)C(=O)O)C(=O)O [QE, 2-[1-Carboxy-2-[4-(3,5-dichloro-phenylcarbamoyl)-phenyl]ethylamino]-4-methyl-pentanoic acid]

Ki [1]: > 0.5 µM
SMILES: Cc1c(Cn2cncc2C[C@H](NC(CC(C)C)C(=O)O)C(=O)O)cccc1-c1ccccc1 (single isomer, unassigned) [IR, 2-[1-Carboxy-2-[3-(2-methyl-biphenyl-3-ylmethyl)-3H-imidazol-4-yl]-ethylamino)-4-methyl-pentanoic acid]

Ki [2]: > 0.5 µM
SMILES: CC(C)C[C@H](N[C@@H](Cc1ccccc1OCc1cccc(Cl)c1)C(=O)O)C(=O)O [QO, 2-[1-Carboxy-2-[2-(3-chloro-benzyloxy)-phenyl]-ethylamino]-4-methyl-pentanoic acid]

Ki [2]: < 0.1 µM
Ki [3]: 0.05 to 0.1 µM
SMILES: CC(C)C[C@H](N[C@@H](Cc1ccc(-c2cccnc2)cc1)C(=O)O)C(=O)O [PJ, (S,S)-2-[1-Carboxy-2-(4-pyridin-3-yl-phenyl)-ethylamino]-4-methyl-pentanoic acid]

Ki [1]: 0.1 to 0.5 µM
SMILES: CC(C)C[C@H](N[C@@H](Cc1ccc(OCc2cccnc2)cc1)C(=O)O)C(=O)O [LX, S,S-2-{1-Carboxy-2-[4-(pyridin-3-ylmethoxy)-phenyl]-ethylamino}-4-methyl pentanoic acid]

Ki [1]: > 0.5 µM
SMILES: CC(C)CC(N[C@@H](Cc1cncn1Cc1ccc(C(C)C)cc1)C(=O)O)C(=O)O (single isomer, unassigned) [HV, 2-[1-Carboxy-2-[3-(4-isopropyl-benzyl)-3H-imidazol-4-yl]-ethylamino)4-methyl-pentanoic acid]

Ki [1]: > 0.5 µM
SMILES: CC(C)C[C@H](N[C@@H](Cc1ccc(Cc2cc(Cl)cc(Cl)c2)cc1)C(=O)O)C(=O)O [OF, (S,S)-2-{1-Carboxy-2-[4-(3,5-dichloro-benzyl)-phenyl]-ethylamino}-4-methyl-pentanoic acid]

Ki [1]: 0.1 to 0.5 µM
SMILES: CC(C)C[C@H](N[C@@H](Cc1ccc(-c2cccc3ccccc23)o1)C(=O)O)C(=O)O [OK]

Ki [1]: 0.1 to 0.5 µM
SMILES: CCCCc1ccc(Cn2cncc2C[C@H](NC(CC(C)C)C(=O)O)C(=O)O)cc1 (single isomer, unassigned) [HI, 2-[2-[3-(4-Butyl-benzyl)-3H-imidazol-4-yl]-1-carboxy-ethylamino]-4-methyl-pentanoic acid]

Ki [1]: > 0.5 µM
SMILES: Cc1ccc(Cn2cncc2C[C@H](NC(CC(C)C)C(=O)O)C(=O)O)cc1C (single isomer, unassigned) [HL, 2-[1-Carboxy-2-[3-(3,4-dimethyl-benzyl)-3H-imidazol-4-yl]-ethylamino]4-methyl-pentanoic acid]

Ki [1]: > 0.5 µM
SMILES: CC(C)C[C@H](N[C@@H](Cc1ccc(O)cc1)C(=O)O)C(=O)O [NX, 2-[1-Carboxy-2-(4-hydroxy-phenyl)-ethylamino]-4-methyl-pentanoic acid]

Ki [1]: < 0.1 µM
Ki [3]: < 0.05 µM
SMILES: Cc1ccc(-c2nc(C[C@H](N[C@@H](CC(C)C)C(=O)O)C(=O)O)cs2)cc1 [KK, (S,S)-2-[1-Carboxy-2-(2-p-tolyl-thiazol-4-yl)-ethylamino]-4-methyl-pentanoic acid]

Ki [1]: 0.1 to 0.5 µM
SMILES: Cc1nc(C[C@H](NC(CC(C)C)C(=O)O)C(=O)O)c(Cc2ccccc2)s1 (single isomer, unassigned) [KB, 2-[2-(5-Benzyl-2-methyl-thiazol-4-yl)-1-carboxy-ethylamino]-4-methyl-pentanoic acid]

Ki [4]: > 0.5 µM
SMILES: CC(C)CC(N[C@@H](Cc1nc2ccccc2n1Cc1ccccc1)C(=O)O)C(=O)O (single isomer, unassigned) [GR, 2-[2-(1-Benzyl-1H-benzoimidazol-2-yl)-1-carboxy-ethylamino]-4-methyl-pentanoic acid]

— patent US7045532B2 (Millennium Pharmaceuticals, Inc., priority 1999, dated 2006)
